{
  "source": "patent US20240041813A1",
  "about": "“VERY-LONG-CHAIN POLYUNSATURATED FATTY ACIDS, ELOVANOID HYDROXYLATED DERIVATIVES, AND METHODS OF USE” (priority 2020, published 2024)",
  "key": {"[1]": {"tested_on": "ACE2", "test": "HCEC challenged with IFNγ: Ace2 gene expression", "assay_type": "cell-based, human", "conditions": "IFNγ 100 ng/ml", "excerpt": "All experiments with human corneal epithelial cells were approved by the Institutional Review Board of LSUHNO and conducted in accordance with NIH guidelines. HCEC were kept frozen in the laboratory at passage 2544. Cells were maintained in keratinocyte growth (KGM) medium containing the keratinocyte basal medium (KBM) (Lonza: CC-3101) supplemented with bovine pituitary extract (BPE), hEGF, Insulin, Hydrocortisone and Gentamicin Sulfate-Amphotericin (GA-1000) (Lonza, Cat. CC-4131). For all experiments, cells were seeded at 30,000 cells/cm2.\nFor screening the stimulation of receptor ACE2 by cytokines, the HCEC were cultured with KGM until 50-60% confluence. Then, changed to KBM containing IL-1β, -2, -6 and 8, IFN-α, -ε, and -γ or TNFα at 1, 10 or 100 ng/ml. The cells were harvested after 6 hours and analyze for the gene expression of Ace2. In other experiments, HCEC were stimulated with IFNγ, and thereafter, lipid mediators were added. For the Alexa 594-conjugated RBD binding, IFNγ was used as a cytokine trigger. At 12 hours after cytokine exposure and lipid mediator treatments, […] of labeled RBD was added to the medium. The evaluation of RBD binding was conducted 24 hours after.\nQuantitative PCR was performed with the Biomark HD system (Fluidigm, San Francisco, CA, USA). […]"}, "[2]": {"tested_on": "ACE2", "test": "Rat cornea alkali burn: ACE2 abundance by Jess capillary-based Western Blot", "assay_type": "in vivo", "conditions": "rat cornea after alkali burn; eye drops 20 μl/eye, 3 times/day for 14 days; day 14", "excerpt": "Sprague-Dawley rats (8-week-old male) were obtained from Charles River Laboratories (Wilmington, MA, USA) and kept at the Animal Care of the Neuroscience Center of Excellence, Louisiana State University Health (LSUH; New Orleans, LA, USA). All animals were handled in compliance with the guidelines of the ARVO Statement for the Use of Animals in Ophthalmic and Vision Research, and the experimental protocol was approved by the Institutional Animal Care and Use Committee (IACUC) at LSUH.\nThe rats were anesthetized by intraperitoneal injection of Ketamine (50-100 mg/kg) plus xylazine (5-10 mg/kg). A 4 mm diameter filter paper soaked in 1 N NaOH was placed on the central cornea of the right eye for 45 seconds, and then the eye was thoroughly washed with […] of saline. After injury, the rats were randomly divided into five treatment groups: vehicle; lipoxin A4 (LXA4) from Cayman Chemical (Ann Arbor, MI, USA); R,R Resolvin D6 isomer (RvD6i), R,R neuroprotection D (NPD1), and elovanoid (ELV)-N32. All lipid solutions were prepared at the final concentration of […] using PBS with the minimal contamination of ethanol by evaporating the ethanol and immediately dissolve the lipids in PBS, then vortex well for 2 min. Topical administration (20 μl) was done 3×/day for 14 days. The experiments were double-blinded with the lipid mediators coded during the whole experiments. At the end of the study, when all data was collected, the code was opened.\nBriefly, samples were lysed with RIPA buffer containing a protease inhibitor cocktail (Sigma, Cat. P8340). Cell debris was removed after 10 min centrifugation at 16,000×g. Protein concentration was determined by BCA assay (Thermo Fisher Scientific, Cat. 23225) and 1 μg used/reaction. Fluorescent Master Mix was mixed with 40 mM DTT, and the mixture was added to each sample to provide a denaturing and reducing environment. Samples were heated at 95° C./5 min, and 3 μL of each sample were loaded. The 12-230 kDa cartridge (Protein Simple—#SM-W004) was used. Primary antibodies were diluted in antibody diluent 2 buffer (Protein Simple, #042-203) while the working solution of secondary antibodies was provided by the company (Protein Simple, #042-206). Then, the filled plate was spin-down for 10 min at 1,000×g to remove bubbles and plate, and capillaries were loaded into the Jess machine. For data analysis, the area of spectra that matched the molecular weight of the target protein was used. To reduce the coefficient variant, we analyzed the GAPDH for each capillary. The ratio of the targeted protein to GAPDH was used for statistical comparisons. For visualization, the artificial lanes generated from spectra volume was used."}},
  "note": "Entries after “also recorded” stand apart in the source; their conditions may differ.",
  "data": [
    {"compound": "CC/C=C\\CC(O)\\C=C/C=C/C=C/C(O)C/C=C\\C/C=C\\CCCCCCCCCCCCC(=O)O", "note": "[ELV-N32, (14Z,17Z,20R,21E,23E,25Z,27S,29Z)-20,27-dihydroxydo-triaconta-14,17,21,23,25,29-hexaenoic acid]", "values": [
      {"measurement": "IFNγ-triggered Ace2 activation", "setting": "[1]", "result": "markedly attenuated; also recorded: suppressed"},
      {"measurement": "ACE2 abundance (protein, normalized to GAPDH)", "setting": "[2]", "result": "decrease"}
    ]}
  ]
}
